Our source for the EC50 values is patent US12577206B2 (BRISTOL-MYERS SQUIBB COMPANY, priority 2020, dated 2026).

The target of one assay is T1, human FPR2 (Homo sapiens, UniProt P25090).
T1 sequence (P25090 1-351): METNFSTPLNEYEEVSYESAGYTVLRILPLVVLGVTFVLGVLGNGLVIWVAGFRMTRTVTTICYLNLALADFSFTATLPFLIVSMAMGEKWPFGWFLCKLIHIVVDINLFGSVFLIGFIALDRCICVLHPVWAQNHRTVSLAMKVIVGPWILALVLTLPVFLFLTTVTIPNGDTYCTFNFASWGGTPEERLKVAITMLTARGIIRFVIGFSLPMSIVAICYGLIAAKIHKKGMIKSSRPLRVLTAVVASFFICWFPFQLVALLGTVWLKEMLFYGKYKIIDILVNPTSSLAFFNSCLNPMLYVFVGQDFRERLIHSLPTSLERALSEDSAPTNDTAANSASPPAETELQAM
Description: FPR2 cyclic adenosine monophosphate (cAMP) assay. Format: cell-based. The note with it: CHO cells overexpressing human FPR2; forskolin 5 μM; inhibition of cAMP production; HTRF; read-out: hFPR2 cAMP2 EC50. A digest of the protocol: (§1)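 Inhibition of forskolin-stimulated cAMP (final forskolin 5 μM for FPR2, 10 μM for FPR1; IBMX 200 μM) was measured by HTRF in recombinant CHO cells after 30 min at room temperature.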

A further assay addresses T2, human FPR1 (Homo sapiens, UniProt P21462).
T2 sequence (P21462 1-350): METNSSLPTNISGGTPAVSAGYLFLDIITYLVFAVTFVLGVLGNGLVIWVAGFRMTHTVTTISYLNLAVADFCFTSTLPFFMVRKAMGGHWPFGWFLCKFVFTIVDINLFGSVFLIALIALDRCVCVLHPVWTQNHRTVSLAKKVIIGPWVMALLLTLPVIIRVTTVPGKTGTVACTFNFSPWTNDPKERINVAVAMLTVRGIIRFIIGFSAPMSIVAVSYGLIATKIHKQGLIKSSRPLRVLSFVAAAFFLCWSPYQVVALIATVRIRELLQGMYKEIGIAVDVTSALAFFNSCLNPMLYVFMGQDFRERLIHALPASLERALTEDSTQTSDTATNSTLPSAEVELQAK
Nature of the assay: FPR1 cyclic adenosine monophosphate (cAMP) assay. The class given is cell-based. The note with it: CHO cells overexpressing human FPR1; forskolin 10 μM; inhibition of cAMP production; HTRF; read-out: hFPR1 cAMP2 EC50. A digest of the protocol:
as §1
(In general: Cyclic AMP is a second messenger, typically raised through Gs and lowered through Gi signalling.)

As for `COc1cc(F)c(-c2c(NC(=O)c3ccc(OC(F)F)cc3)c(=O)n(-c3ccccn3)n2C)c(F)c1` [Example 44, N-[5-(2,6-difluoro-4-methoxyphenyl)-1-methyl-3-oxo-2-(pyridin-2-yl)-2,3-dihydro-1H-pyrazol-4-yl]-4-(difluoromethoxy)benzamide], the figures for the half-maximal effective concentration (EC50) on human FPR2 and at human FPR1 were 16 nM and above 10000 nM, respectively.

For the molecule `COc1cc(F)c(-c2c(NC(=O)c3ccc(OC(F)F)cc3)c(=O)n(-c3cccc(C4CC4)n3)n2C)c(F)c1` [Example 45, N-[2-(6-cyclopropylpyridin-2-yl)-5-(2,6-difluoro-4-methoxyphenyl)-1-methyl-3-oxo-2,3-dihydro-1H-pyrazol-4-yl]-4-(difluoromethoxy)benzamide], the EC50 (usually the concentration that produces a half-maximal response) on human FPR2 was 6 nM; at human FPR1, 2800 nM.

With `COc1cc(F)c(-c2c(NC(=O)c3ccc(OC(F)F)cc3)c(=O)n(-c3cccc(C)n3)n2C)c(F)c1` [Example 46, N-[5-(2,6-difluoro-4-methoxyphenyl)-1-methyl-2-(6-methylpyridin-2-yl)-3-oxo-2,3-dihydro-1H-pyrazol-4-yl]-4-(difluoromethoxy)benzamide], the results for the EC50 on human FPR2 and at human FPR1 were 22 nM and above 10000 nM, respectively.

As to `COc1cc(F)c(-c2c(NC(=O)c3ccc(OC(F)F)cc3)c(=O)n(-c3ccc(C4CC4)cn3)n2C)c(F)c1` [Example 47, N-[2-(5-cyclopropylpyridin-2-yl)-5-(2,6-difluoro-4-methoxyphenyl)-1-methyl-3-oxo-2,3-dihydro-1H-pyrazol-4-yl]-4-(difluoromethoxy)benzamide], the EC50 on human FPR2 was 6 nM; on human FPR1, 460 nM.

In the case of `COc1cc(F)c(-c2c(NC(=O)c3ccc(Cl)cc3)c(=O)n(-c3ccc(C)cn3)n2C)c(F)c1` [Example 48, 4-chloro-N-[5-(2,6-difluoro-4-methoxyphenyl)-1-methyl-2-(5-methylpyridin-2-yl)-3-oxo-2,3-dihydro-1H-pyrazol-4-yl]benzamide], the EC50 at human FPR2 is 43 nM; on human FPR1 it was above 10000 nM.

Take `COc1cc(F)c(-c2c(NC(=O)c3ccc(OC(F)F)cc3)c(=O)n(-c3ccc(C)cn3)n2C)c(F)c1` [Example 49, N-[5-(2,6-difluoro-4-methoxyphenyl)-1-methyl-2-(5-methylpyridin-2-yl)-3-oxo-2,3-dihydro-1H-pyrazol-4-yl]-4-(difluoromethoxy)benzamide]: the values for the EC50 at human FPR2 and on human FPR1 were 55 nM and 6800 nM, respectively.

Take `COc1cc(F)c(-c2c(NC(=O)c3ccc(OC(F)(F)F)cc3)c(=O)n(-c3ccc(C)cn3)n2C)c(F)c1` [Example 50, N-[5-(2,6-difluoro-4-methoxyphenyl)-1-methyl-2-(5-methylpyridin-2-yl)-3-oxo-2,3-dihydro-1H-pyrazol-4-yl]-4-(trifluoromethoxy)benzamide]: the EC50 at human FPR2 was 18 nM; at human FPR1, 1300 nM.

As for `COc1cc(F)c(-c2c(NC(=O)c3ccc(OC(F)F)cc3)c(=O)n(-c3ccc(-c4ccccc4)cn3)n2C)c(F)c1` [Example 51, N-[5-(2,6-difluoro-4-methoxyphenyl)-1-methyl-3-oxo-2-(5-phenylpyridin-2-yl)-2,3-dihydro-1H-pyrazol-4-yl]-4-(difluoromethoxy)benzamide], the EC50 on human FPR2 was determined as 18 nM; at human FPR1, 1100 nM.

Turning to `COc1cc(F)c(-c2c(NC(=O)c3ccc(OC(F)(F)F)cc3)c(=O)n(-c3ccc(C4CC4)cn3)n2C)c(F)c1` [Example 52, N-[2-(5-cyclopropylpyridin-2-yl)-5-(2,6-difluoro-4-methoxyphenyl)-1-methyl-3-oxo-2,3-dihydro-1H-pyrazol-4-yl]-4-(trifluoromethoxy)benzamide], the EC50 on human FPR2 came to 9 nM; on human FPR1, 190 nM.

In the case of `COc1cc(F)c(-c2c(NC(=O)c3ccc(C4CC4)cc3)c(=O)n(-c3ccc(C4CC4)cn3)n2C)c(F)c1` [Example 53, 4-cyclopropyl-N-[2-(5-cyclopropylpyridin-2-yl)-5-(2,6-difluoro-4-methoxyphenyl)-1-methyl-3-oxo-2,3-dihydro-1H-pyrazol-4-yl]benzamide], the EC50 came out at 59 nM on human FPR2 and 610 nM on human FPR1.

With `COc1cc(F)c(-c2c(NC(=O)c3ccc(OC(F)F)cc3)c(=O)n(-c3ccc(C#N)cn3)n2C)c(F)c1` [Example 54, N-[2-(5-cyanopyridin-2-yl)-5-(2,6-difluoro-4-methoxyphenyl)-1-methyl-3-oxo-2,3-dihydro-1H-pyrazol-4-yl]-4-(difluoromethoxy)benzamide], the EC50 at human FPR2 was 19 nM; on human FPR1, 3300 nM.

In the case of `COc1cc(F)c(-c2c(NC(=O)c3ccc(OC(F)F)cc3)c(=O)n(-c3ncccc3C#N)n2C)c(F)c1` [Example 55, N-[2-(3-cyanopyridin-2-yl)-5-(2,6-difluoro-4-methoxyphenyl)-1-methyl-3-oxo-2,3-dihydro-1H-pyrazol-4-yl]-4-(difluoromethoxy)benzamide], the EC50 was determined as 8 nM at human FPR2 and 9600 nM on human FPR1.

Turning to `COc1cc(F)c(-c2c(NC(=O)c3ccc(OC(F)(F)F)cc3)c(=O)n(-c3ncccc3C#N)n2C)c(F)c1` [Example 56, N-[2-(3-cyanopyridin-2-yl)-5-(2,6-difluoro-4-methoxyphenyl)-1-methyl-3-oxo-2,3-dihydro-1H-pyrazol-4-yl]-4-(trifluoromethoxy)benzamide], the EC50 on human FPR2 was 7 nM; at human FPR1, above 10000 nM.

`COc1cc(F)c(-c2c(NC(=O)c3ccc(OC(F)F)cc3)c(=O)n(Cc3nnc(C(C)C)o3)n2C)c(F)c1` [Example 57, N-[5-(2,6-difluoro-4-methoxyphenyl)-1-methyl-3-oxo-2-{[5-(propan-2-yl)-1,3,4-oxadiazol-2-yl]methyl}-2,3-dihydro-1H-pyrazol-4-yl]-4-(difluoromethoxy)benzamide]: the concentration for a half-maximal effect (EC50) at human FPR2 was 150 nM; on human FPR1 it was 380 nM.

Consider `COc1cc(F)c(-c2c(NC(=O)c3ccc(OC(F)F)cc3)c(=O)n(CCO)n2C)c(F)c1` [Example 58, N-[5-(2,6-difluoro-4-methoxyphenyl)-2-(2-hydroxyethyl)-1-methyl-3-oxo-2,3-dihydro-1H-pyrazol-4-yl]-4-(difluoromethoxy)benzamide], for which the EC50 was 230 nM on human FPR2 and above 10000 nM at human FPR1.

As for `COc1ccnc(-n2c(=O)c(NC(=O)c3ccc(OC(F)F)cc3)c(-c3c(F)cc(OC)cc3F)n2C)c1` [Example 59, N-[5-(2,6-difluoro-4-methoxyphenyl)-2-(4-methoxypyridin-2-yl)-1-methyl-3-oxo-2,3-dihydro-1H-pyrazol-4-yl]-4-(difluoromethoxy)benzamide], the EC50 is 8 nM on human FPR2 and above 10000 nM at human FPR1.

On to `COc1cc(F)c(-c2c(NC(=O)c3ccc(OC(F)F)cc3)c(=O)n(-c3ccc4ccccc4n3)n2C)c(F)c1` [Example 60, N-[5-(2,6-difluoro-4-methoxyphenyl)-1-methyl-3-oxo-2-(quinolin-2-yl)-2,3-dihydro-1H-pyrazol-4-yl]-4-(difluoromethoxy)benzamide], for which the EC50 stood at 3 nM on human FPR2 and 210 nM on human FPR1.

As for `COc1cc(F)c(-c2c(NC(=O)c3ccc(OC(F)F)cc3)c(=O)n(-c3cncc(C)n3)n2C)c(F)c1` [Example 61, N-[5-(2,6-difluoro-4-methoxyphenyl)-1-methyl-2-(6-methylpyrazin-2-yl)-3-oxo-2,3-dihydro-1H-pyrazol-4-yl]-4-(difluoromethoxy)benzamide], the EC50 at human FPR2 was 11 nM; on human FPR1 it was 1600 nM.

Turning to `COc1cc(F)c(-c2c(NC(=O)c3ccc(OC(F)F)cc3)c(=O)n(-c3cc(C(F)(F)F)ccn3)n2C)c(F)c1` [Example 62, N-[5-(2,6-difluoro-4-methoxyphenyl)-1-methyl-3-oxo-2-[4-(trifluoromethyl)pyridin-2-yl]-2,3-dihydro-1H-pyrazol-4-yl]-4-(difluoromethoxy)benzamide], the EC50 at human FPR2 was 6 nM; at human FPR1, above 10000 nM.

For the molecule `COc1cc(F)c(-c2c(NC(=O)c3ccc(OC(F)(F)F)cc3)c(=O)n(-c3cc(C(F)(F)F)ccn3)n2C)c(F)c1` [Example 63, N-[5-(2,6-difluoro-4-methoxyphenyl)-1-methyl-3-oxo-2-[4-(trifluoromethyl)pyridin-2-yl]-2,3-dihydro-1H-pyrazol-4-yl]-4-(trifluoromethoxy)benzamide], the EC50 was 7 nM at human FPR2 and above 10000 nM on human FPR1.

Regarding `COc1cc(F)c(-c2c(NC(=O)c3ccc(OC(F)F)cc3)c(=O)n(-c3cnc4ccccc4n3)n2C)c(F)c1` [Example 64, N-[5-(2,6-difluoro-4-methoxyphenyl)-1-methyl-3-oxo-2-(quinoxalin-2-yl)-2,3-dihydro-1H-pyrazol-4-yl]-4-(difluoromethoxy)benzamide], the EC50 amounted to 11 nM at human FPR2 and 800 nM on human FPR1.
